Assay results: US20240199571A1, “THIOPHENE COMPOUND AND APPLICATION THEREOF” (MEDSHINE DISCOVERY INC., priority 2021, published 2024)
pIC50: −log10 of the molar value. Counter-ions that a name gives are not always drawn.

How the values were obtained:
[1] = test system: NCI-H1417 cells; experiment: Experiment 2: inhibition of NCI-H1417 cell proliferation (CellTiter-Glo, 10 days); assay type: cell-based; conditions: Homo sapiens, 240 h, 10 days incubation
Protocol: Experiment 2: Evaluation of Inhibitory Activity on NCI-H1417 Cell Proliferation
Experimental purpose: To test the inhibitory activity of test compounds on NCI-H1417 cell proliferation.
Experimental materials: RPMI 1640 medium, fetal bovine serum, Promega CellTiter-Glo reagent. The NCI-H1417 cell line was purchased from ATCC. Envision multilabel plate reader (PerkinElmer).
Experimental method: The compounds were dissolved to 10 mM and 5-fold diluted with DMSO in the compound plates, starting with a concentration of 2 mM. 3-fold serial dilution was performed with Bravo to 10 concentrations. Then 250 nL of the compound solution was transferred to the upper and lower double duplicate wells of a blank 384 cell plate with Echo. To each well containing the transferred 250 nL of DMSO/compound was added a cell suspension of 1000 cells/50 μL per well, and the compound was diluted 200-fold, i.e., resulting in an initial working concentration of 10 μM. The cell plate was incubated in a carbon dioxide incubator for 10 days. To the cell plate was added 25 μL of Promega CellTiter-Glo reagent per well and the mixture was shaken for 10 minutes at room temperature to stabilize the luminescence signal. Readings were performed on a PerkinElmer Envision multilabel plate reader.
Data analysis: Raw data were converted into inhibition rate using the formula: (Max−Ratio)/(Max−Min)*100%. The IC50 values could then be derived from four-parameter curve fitting. (derived from 205 mode in XLFIT5, iDBS)
The compounds were tested for inhibitory activity of compounds on NCI-H1417 cell proliferation, and the results are shown in Table 3.

[2] = biological target: hERG potassium ion channels (Homo sapiens (Human), UniProt Q12809); experiment: Experiment 4: hERG potassium ion channel inhibition, automated patch clamp (Qpatch), CHO-hERG cells; assay type: cell-based; conditions: highest test concentration 40 μM
hERG potassium ion channels, sequence (Q12809 whole entry): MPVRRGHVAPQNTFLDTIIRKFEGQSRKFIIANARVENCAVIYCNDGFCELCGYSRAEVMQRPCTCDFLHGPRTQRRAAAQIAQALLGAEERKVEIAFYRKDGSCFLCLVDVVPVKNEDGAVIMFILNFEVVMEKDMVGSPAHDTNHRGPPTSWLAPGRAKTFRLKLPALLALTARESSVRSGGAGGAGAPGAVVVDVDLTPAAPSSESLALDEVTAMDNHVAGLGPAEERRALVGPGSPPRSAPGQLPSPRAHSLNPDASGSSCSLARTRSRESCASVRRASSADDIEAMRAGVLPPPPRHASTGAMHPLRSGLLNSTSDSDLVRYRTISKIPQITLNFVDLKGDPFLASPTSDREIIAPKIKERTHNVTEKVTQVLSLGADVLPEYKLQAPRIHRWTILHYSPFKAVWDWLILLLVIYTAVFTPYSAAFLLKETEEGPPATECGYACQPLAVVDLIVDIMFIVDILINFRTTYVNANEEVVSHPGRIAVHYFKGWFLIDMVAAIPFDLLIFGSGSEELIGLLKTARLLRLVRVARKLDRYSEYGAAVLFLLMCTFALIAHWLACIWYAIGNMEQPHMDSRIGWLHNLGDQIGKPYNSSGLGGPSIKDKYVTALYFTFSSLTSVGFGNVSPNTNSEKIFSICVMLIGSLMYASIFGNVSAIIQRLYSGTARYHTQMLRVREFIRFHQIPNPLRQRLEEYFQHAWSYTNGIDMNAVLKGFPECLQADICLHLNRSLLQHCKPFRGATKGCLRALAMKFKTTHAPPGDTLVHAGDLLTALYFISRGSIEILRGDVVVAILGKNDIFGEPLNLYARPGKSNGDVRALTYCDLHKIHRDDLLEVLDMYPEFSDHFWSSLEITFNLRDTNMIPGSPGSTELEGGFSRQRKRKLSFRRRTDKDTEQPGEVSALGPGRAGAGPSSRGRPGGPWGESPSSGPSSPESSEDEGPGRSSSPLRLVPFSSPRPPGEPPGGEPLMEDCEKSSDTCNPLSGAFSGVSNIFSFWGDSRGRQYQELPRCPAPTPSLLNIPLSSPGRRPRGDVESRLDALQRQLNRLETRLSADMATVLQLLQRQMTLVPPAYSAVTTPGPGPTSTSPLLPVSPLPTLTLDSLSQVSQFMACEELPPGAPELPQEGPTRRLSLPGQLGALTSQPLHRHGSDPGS
Protocol: Experiment 4: hERG Potassium Ion Channel Inhibition Assay
Experimental purpose: To test the effects of the test examples on hERG potassium ion channels using an automated patch clamp method.
4.1.1 CHO-hERG cells were cultured in a 175 cm^2 culture flask. When the cell density grew from 60% to 80%, the culture medium was removed. The cells were washed once with 7 mL of PBS (Phosphate Buffered Saline), and then 3 mL of Detachin cell dissociation reagent was added thereto for digestion.
4.1.2 After the digestion was completed, 7 mL of culture medium was added thereto for neutralization, then the mixture was centrifuged, the supernatant was aspirated, and then 5 mL of culture medium was added thereto for resuspension to ensure a cell density of 2×10^6/mL to 5×10^6/ML.
The single-cell high-resistance sealing and whole-cell modeling formation processes were all automatically completed by the Qpatch instrument of the Shanghai Institute of Materia Medica, Chinese Academy of Sciences. After obtaining the whole-cell recording modeling, the cells were clamped at −80 mV, and before a 5-second +40 mV depolarizing stimulus was given, a 50-millisecond −50 mV prepulse was first given, then the voltage was repolarized to −50 mV and holden for 5 seconds, and finally returned to −80 mV. This voltage stimulus was applied every 15 seconds, recorded for 2 minutes, and then the extracellular fluid was recorded for 5 minutes, and then the administration process was initiated, with compound concentrations starting at the lowest test concentration. The voltage stimulus was given for 2.5 minutes for each test concentration, and after all concentrations had been continuously given, 3 μM the positive control compound, Cisapride, was given. At least 3 cells were tested per concentration (n≥3).
4.4.1 The compound stock solution was diluted with DMSO, and 20 μL of DMSO solution was added with 10 μL of the compound stock solution, and serially diluted 3-fold to 6 DMSO concentrations.
4.4.2 4 μL of 6 DMSO concentrations of compounds were taken respectively and added to 396 μL of extracellular fluid, and the mixture was diluted 100-fold to 6 intermediate concentrations, then 80 μL of 6 intermediate concentrations of compounds was taken and added to 320 μL of extracellular fluid, and the mixture was diluted 5-fold to the final test concentration.
4.4.3 The highest test concentration was 40 μM, and the concentrations were respectively 40, 13.3, 4.4, 1.48, 0.494, and 0.165 μM for a total of six concentrations.
4.4.5 The preparation of the compound was completed by the Bravo instrument throughout the dilution process.
Experimental data were analyzed by GraphPad Prism 5.0 software.

[3] = biological target: human LSD1 (Homo sapiens (Human), UniProt O60341); experiment: Experiment 1B: in vitro LSD1 enzyme activity, enzyme-coupled fluorescence (HRP/Amplex Red), H3(1-21)K4me2 peptide 10 μM (Reaction Biology); assay type: biochemical; conditions: histone H3(1-21)K4me2 peptide 10 μM
Protocol: Experiment 1B: Evaluation of Enzyme Activity
Testing unit: Reaction Biology Corp., USA.
The purpose of the assay was to test the in vitro inhibitory activity of the compounds against LSD1. The enzyme used in the assay was human LSD1, and the standard substrate was histone H3(1-21)K4me2 peptide (10 μM). The activity of the compounds was determined by the enzyme-coupling fluorescent method by the combined detection of H2O2 generated after the reaction of LSD1 by horseradish peroxidase (HRP) and the fluorescent reagent Amplex Red. Starting from 10 μM, the compounds were 3-fold diluted to detect the IC50 values of the compounds at 10 concentrations. The enzyme and substrate were incubated for 30 minutes before the compound was added to the substrate to start the reaction. Fluorescence detector: EnVision, excitation wavelength: Ex/Em=535/590 nM.

[4] = Experiment 3: pharmacokinetic evaluation in CD-1 mice (IV and oral); assay type: in vivo; conditions: mouse, plasma, male CD-1 mice
Protocol: Experiment 3: Pharmacokinetic Evaluation of Compounds
Experimental purpose: To test the pharmacokinetics of compounds in CD-1 mice in vivo
CD-1 mice (male/female, 7 to 9 weeks old, Shanghai SLAC)
The pharmacokinetic characteristics of the compounds in rodents after intravenous injection and oral administration were tested according to the standard protocol. In the experiment, the candidate compound was formulated into clear solutions, and a single intravenous injection and oral administration were given to mice. The vehicle for intravenous injection and oral administration was a mixed vehicle composed of 10% dimethyl sulfoxide and 90% hydroxypropyl β-cyclodextrin with a content of 10%. In this project, four male/female CD-1 mice were used. Two mice were injected intravenously at a dose of 1 mg/kg, and plasma samples were collected at 0.083, 0.25, 0.5, 1, 2, 4, 8, and 24 hours after administration; the other two were administered orally by gavage at a dose of 2 mg/kg, and plasma samples were collected at 0.25, 0.5, 1, 2, 4, 8, and 24 hours after administration. The samples were centrifuged at 3200 g for 10 minutes at 4° C., and plasma samples were obtained by separating the supernatant. A methanol solution containing internal standard with 20 times the volume of the sample was added thereto to precipitate the protein, and the mixture was centrifuged at 12000 g for 15 minutes at 4° C. 50 μL of the supernatant was taken and transferred to a 96-well plate and centrifuged again. The supernatant was taken for sampling. The plasma concentration was quantitatively analyzed using LC-MS/MS analysis method, and pharmacokinetic parameters, such as peak concentration (Cmax), clearance rate (CL), half-life (T1/2), volume of distribution at steady state (Vdss), area under drug-time curve (AUC0-last), bioavailability (F).

Row | SMILES | pIC50 [1] | pIC50 [2] | pIC50 [3] | clearance ([4]; IV 1 mg/kg, read-out: Clearance rate CL) [mL/min/kg] | half-life ([4]; IV 1 mg/kg, read-out: Half life T1/2 (IV, h) (converted)) [h] | Vd ([4]; IV 1 mg/kg, read-out: Volume of distribution at steady state Vdss) [L/kg] | bioavailability ([4]; PO 2 mg/kg vs IV 1 mg/kg, read-out: Bioavailability F (%)) [%] | AUC(0-t) ([4]; PO 2 mg/kg, read-out: Area under drug-time curve AUC0-last PO) [µM·h] | Cmax ([4]; single dose, oral 2 mg/kg, read-out: Peak concentration Cmax) [nM]
1 | CC(C)(O)CN1Cc2cc(-c3sc(C(=O)N4CCC[C@@H](N)C4)cc3-c3ccc(C#N)c(F)c3)ccc2C1=O [Compound 59] | 7.88 | < 4.40 | 7.37 |  |  |  |  |  | 
2 | CC(C)(O)Cn1nnc2cc(-c3sc(C(=O)N4C5CCC4C(N)C5)cc3-c3ccc(C#N)c(F)c3)ccc21 (stereo not drawn) [Hydrochloride of compound 16] | 9.77 | < 4.40 | 8.12 |  |  |  |  |  | 
3 | N#Cc1ccc(-c2cc(C(=O)N3CCC[C@@H](N)C3)sc2-c2ccc3c(c2)CNC3=O)cc1F [Hydrochloride of compound 46] | 7.71 | < 4.40 | 7.09 |  |  |  |  |  | 
4 | N#Cc1ccc(-c2cc(C(=O)N3CCC[C@@H](N)C3)sc2-c2ccc(OCC(O)CO)c(F)c2)cc1F (stereo partly drawn) [Hydrochloride of compound 54] | 8.29 | < 4.40 | 7.30 |  |  |  |  |  | 
5 | Cn1cc2cc(-c3sc(C(=O)N4CCC[C@@H](N)C4)cc3-c3ccc(C#N)c(F)c3)cnc2n1 [Hydrochloride of compound 56] | 7.25 | < 4.40 | 6.96 |  |  |  |  |  | 
6 | N#Cc1ccc(-c2cc(C(=O)N3CCC[C@@H](N)C3)sc2-c2ccc3c(cnn3CC(O)CO)c2)cc1F (stereo partly drawn) [Hydrochloride of compound 62] | 7.95 | < 4.40 | 7.52 |  |  |  |  |  | 
7 | N#Cc1ccc(-c2cc(C(=O)N3CCC[C@@H](N)C3)sc2-c2ccc3nn(C4CC(O)C4)cc3c2)cc1F (stereo partly drawn) [Hydrochloride of compound 73] | 7.84 | < 4.40 | 7.93 |  |  |  |  |  | 
8 | N#Cc1ccc(-c2cc(C(=O)N3CCC[C@@H](N)C3)sc2-c2ccc3c(c2)nnn3CC2(O)CCC2)cc1F [Hydrochloride of compound 82] | 8.76 | 4.83 | 8.52 |  |  |  |  |  | 
9 | CC1(O)CC(n2cc3cc(-c4sc(C(=O)N5CCC[C@@H](N)C5)cc4-c4ccc(C#N)c(F)c4)ccc3n2)C1 (stereo partly drawn) [Hydrochloride of compound 86] | 7.99 | 4.68 | 7.80 |  |  |  |  |  | 
10 | N#Cc1ccc(-c2cc(C(=O)N3CCC[C@@H](N)C3)sc2-c2ccc3nn([C@H]4COCC[C@@H]4O)cc3c2)cc1F [Hydrochloride of compound 88] | 7.41 | 4.66 | 7.06 |  |  |  |  |  | 
11 | N#Cc1ccc(-c2cc(C(=O)N3CCC[C@@H](N)C3)sc2-c2ccc3nn(CC4(O)CC4)cc3c2)cc1F [Hydrochloride of compound 89] | 8.79 | 4.64 | 7.82 |  |  |  |  |  | 
12 | N#Cc1ccc(-c2cc(C(=O)N3CCC[C@@H](N)C3)sc2-c2ccc3c(c2)nnn3[C@H]2COCC[C@@H]2O)cc1F [Hydrochloride of compound 90] | 7.43 | < 4.40 | 7.43 |  |  |  |  |  | 
13 | CC(C)(O)Cn1nnc2cc(-c3sc(C(=O)N4CCC[C@@H](N)C4)cc3-c3ccc(C#N)c(F)c3)c(F)c(F)c21 [Hydrochloride of compound 91] | 9.08 | < 4.40 | 7.89 |  |  |  |  |  | 
14 | N#Cc1ccc(-c2cc(C(=O)N3CCC[C@@H](N)C3)sc2-c2cc3cn([C@H]4COCC[C@@H]4O)nc3cc2F)cc1F [Hydrochloride of compound 94] | 7.48 | < 4.40 | 7.01 |  |  |  |  |  | 
15 | CC(C)(CO)n1nnc2cc(-c3sc(C(=O)N4CCC[C@@H](N)C4)cc3-c3ccc(C#N)c(F)c3)c(F)c(F)c21 [Hydrochloride of compound 99] | 8.37 | 4.57 | 7.76 | 42 | 2.48 | 7.23 | 47.7 | 0.625 | 145
16 | CC(C)(O)Cn1nnc2cc(-c3sc(C(=O)N4CCCNCC4)cc3-c3ccc(C#N)c(F)c3)c(F)c(F)c21 [Hydrochloride of compound 111] | 8.67 | 4.67 | 7.75 |  |  |  |  |  | 
